The source of these data is ChEMBL document CHEMBL1201862, “PubChem BioAssay data set” (2004).

Holding throughout (assay): DTP human tumour cell line panel, 48 h
Assay [1] relates to HT-29.
Assay [2] concerns SR.
For assay [3], the system named is OVCAR-3.
In assay [4] the test system is OVCAR-5.
In assay [5] the test system is RPMI-8226.
Assay [6] relates to EKVX.
Assay [7] has as its system SNB-19.
In assay [8] the test system is MCF7.
Assay [9] deals with HCC 2998.
Assay [10] has as its system SN12C.
Assay [11] concerns M14.
Assay [12] has as its system NCI-H226.
Assay [13] deals with NCI-H23.
For assay [14], the system named is NCI-H460.
The test system of assay [15] is SK-MEL-28.
Assay [16] relates to DU-145.
The subject of assay [17] is UO-31.
The subject of assay [18] is OVCAR-8.
Assay [19] deals with MDA-MB-435.
The test system of assay [20] is SNB-75.

By GI50 is commonly meant the concentration that inhibits growth by half.

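Values below derive from 48-hour exposures of cells grown in 96-well plates, with endpoints linearly interpolated between the two concentrations bracketing the appropriate inhibition level. At the GI50, growth is halved.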 Calls of active or inactive are those of the source. No stated cut-off is given here; in the data, active = GI50 up to about 1.1 µM and inactive = higher. Some results are limits rather than exact numbers.

`OC1CCCCCCCCCCC1SCCCCl` (centres undefined): the GI50 in assay [1], in assay [2], in [3], in [4], in assay [5] and in [6] was > 100 µM (inactive) in each case. Moreover, the GI50 in assay [7], in [8], in assay [9], in [10], in assay [11] and in [12] was > 100 µM (inactive) each time. The GI50 in assay [13], in assay [14], in [15], in assay [16], in assay [17] and in assay [18] was > 100 µM (inactive) throughout. For the same compound, the GI50 in assay [19] is > 100 µM (inactive).
As for `CC1(C)Oc2ccc3c(=O)c4ccccc4oc3c2C1C(=O)O` (centres undefined), the GI50 in assay [1] is > 100 µM (inactive); in assay [2], > 10 µM (inactive); in assay [3] it was > 100 µM (inactive); in assay [4], > 100 µM (inactive); in assay [6], > 100 µM (inactive); in [8], > 100 µM (inactive). Moreover, the GI50 in assay [9], in [10], in assay [11], in assay [12], in assay [13] and in [16] was > 100 µM (inactive) in each case. For the same compound, the GI50 in assay [18] and in assay [19] was > 100 µM (inactive) each time.
Regarding `COc1c(-c2nc3ccc(N4CCN(C)CC4)nc3[nH]2)cc(OC)c2[nH]c(COC(C)=O)nc12`, the GI50 is 20.3 µM (inactive) in [1]; 3.78 µM (inactive) in assay [2]; 55.7 µM (inactive) in [4]; 54.2 µM (inactive) in [6]; 28.1 µM (inactive) in assay [7]; 17.2 µM (inactive) in [8]. The GI50 is 15.2 µM (inactive) in [9]; 20.4 µM (inactive) in assay [10]; 19.5 µM (inactive) in assay [11]; 32.2 µM (inactive) in assay [13]; 31.6 µM (inactive) in [14]; 24.4 µM (inactive) in [20]. Besides, the GI50 in assay [15] was 49.1 µM (inactive); in assay [16], 29 µM (inactive); in assay [17], 30.7 µM (inactive); in [18], 50.4 µM (inactive); in assay [19], 26.5 µM (inactive).
With `C=C1C(=O)C([Si](C)(C)C)=C2C=C(C)C3(CC3)C12C` (centres undefined), the GI50 was 18.2 µM (inactive) in assay [1]; 0.0279 µM (active) in assay [2]; 29.2 µM (inactive) in assay [3]; > 100 µM (inactive) in assay [4]; 3.88 µM (inactive) in assay [5]; 4.69 µM (inactive) in [6]. In addition, the GI50 in assay [7] is > 100 µM (inactive); in assay [8], 18.6 µM (inactive); in assay [9] it was 38.9 µM (inactive); in [10] it was 40.9 µM (inactive); in assay [11], 39.8 µM (inactive); in assay [12], 32 µM (inactive). Besides, the GI50 in assay [13] is 46.6 µM (inactive); in [14], 47.6 µM (inactive); in assay [15] it was 58.1 µM (inactive); in assay [16], > 100 µM (inactive); in assay [17], 43.8 µM (inactive); in [18] it was 57.4 µM (inactive). In addition, the GI50 in assay [19] was 12.9 µM (inactive).
Consider `N#CSC1CCCCNC1=O` (centres undefined), for which the GI50 in assay [1] is 11.5 µM (inactive); in assay [2], 6 µM (inactive); in assay [3], 11.3 µM (inactive); in assay [4] it was 2 µM (inactive); in assay [5], 5.96 µM (inactive); in [6], 17.9 µM (inactive). In addition, the GI50 in [7] is 15.2 µM (inactive); in assay [8], 4.07 µM (inactive); in assay [9] it was 16.4 µM (inactive); in assay [10], 14.3 µM (inactive); in assay [11] it was 16.7 µM (inactive); in [12], 12 µM (inactive). The GI50 is 7.62 µM (inactive) in assay [13]; 12.5 µM (inactive) in [14]; 13.4 µM (inactive) in assay [15]; 11.1 µM (inactive) in assay [16]; 15.1 µM (inactive) in [17]; 14.7 µM (inactive) in assay [18]. For the same compound, the GI50 in assay [19] is 13.9 µM (inactive).
As for `O=C(Nc1ccccc1F)c1cc2ccc(O)cc2o/c1=N\c1ccccc1F`, the GI50 in assay [1] is 17.2 µM (inactive); in [2], 1.87 µM (inactive); in assay [3], 2.1 µM (inactive); in [4], 4.5 µM (inactive); in assay [5], 2.04 µM (inactive); in assay [6], 2.75 µM (inactive). In addition, the GI50 is 4.25 µM (inactive) in assay [7]; 3.2 µM (inactive) in [8]; 2.99 µM (inactive) in assay [9]; 2.55 µM (inactive) in assay [11]; 2.17 µM (inactive) in [13]; 2.25 µM (inactive) in assay [14]. In addition, the GI50 in assay [15] was 2.45 µM (inactive); in [16] it was 1.95 µM (inactive); in [17], 1.93 µM (inactive); in assay [18], 1.77 µM (inactive); in assay [19], 2.03 µM (inactive).
As to `COc1ccc(N2C(=O)/C(=C\c3cccc(Oc4ccccc4)c3)SC2c2ccccc2)cc1` (centres undefined), the GI50 in assay [2] was 16.7 µM (inactive); in [3], 33.9 µM (inactive); in [4] it was > 100 µM (inactive); in [5], 21.2 µM (inactive); in assay [6] it was > 100 µM (inactive); in assay [7] it was 24.2 µM (inactive). Moreover, the GI50 in assay [8] is 29.9 µM (inactive); in assay [9], > 100 µM (inactive); in [10], > 100 µM (inactive); in [11] it was 49.7 µM (inactive); in [12], > 100 µM (inactive); in assay [13], 41.7 µM (inactive). Moreover, the GI50 is > 100 µM (inactive) in assay [14]; 38.1 µM (inactive) in assay [15]; 73.8 µM (inactive) in [16]; 37.4 µM (inactive) in assay [17]; 28.6 µM (inactive) in assay [18]; 30.5 µM (inactive) in assay [19].
Consider `COC(=O)C1=C(O)c2ccc(Cl)cc2S(=O)(=O)N1C`, for which the GI50 in assay [1] is > 100 µM (inactive); in assay [2], > 100 µM (inactive); in assay [4] it was > 100 µM (inactive); in assay [5], 80.7 µM (inactive); in assay [6], 42.2 µM (inactive); in assay [7], 60.4 µM (inactive). The GI50 was > 100 µM (inactive) in assay [8]; > 100 µM (inactive) in [9]; > 100 µM (inactive) in assay [10]; 51.1 µM (inactive) in assay [11]; 58.9 µM (inactive) in assay [13]; 45.3 µM (inactive) in assay [14]. The GI50 in assay [15] is > 100 µM (inactive); in assay [16] it was > 100 µM (inactive); in [17], > 10 µM (inactive); in assay [19], > 100 µM (inactive).
